The target of test [1] is T1, Dual specificity protein phosphatase 3 (Homo sapiens, UniProt P51452). Briefly: Tested for effect on inhibition of Dual specificity protein phosphatase 3 at a dose of 2.5 mM.
Target sequence in this assay (P51452 whole entry, looked up): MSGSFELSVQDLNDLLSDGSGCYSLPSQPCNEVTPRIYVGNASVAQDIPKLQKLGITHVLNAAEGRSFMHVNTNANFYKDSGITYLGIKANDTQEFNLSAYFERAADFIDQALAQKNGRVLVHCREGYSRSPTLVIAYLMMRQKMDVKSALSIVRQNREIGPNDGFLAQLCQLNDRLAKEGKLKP
Test [2] is described as follows: Tested for effect on inhibition of protein tyrosine phosphatase 1B.
Test [3] is described as follows: Tested for effect on inhibition of DSP VH1 (dual-specificity phosphatase vaccinia open reading frame H1).
Test [4] has as its target T1, Dual specificity protein phosphatase 3. Briefly: Tested for effect on inhibition of Dual specificity protein phosphatase 3 and the value reported is overall equilibrium constant.
Target sequence in this assay (P51452 whole entry): as the sequence (P51452 whole entry, looked up) above
The nature of test [5]: Tested for effect on inhibition of DSP VH1 (dual-specificity phosphatase vaccinia open reading frame H1) and the value reported is equilibrium constant.
Test [6] in a line: Tested for effect on inhibition of DSP VH1 (dual-specificity phosphatase vaccinia open reading frame H1) and the value reported is overall equilibrium constant.

With `O=C/C=C/c1ccc(C(=O)O)cc1`, in test [1], the inhibition (in general, the change of the read-out against control, counted positive when it falls) stood at 40%. Besides, the IC50 (usually the point on the concentration scale where inhibition reaches its midpoint) was 970 µM in test [2] and about 1000 µM in test [3].
As for `NC(=O)[C@H](CCC(=O)O)NC(=O)[C@H](CCC(=O)O)NC(=O)CNC(=O)c1ccc(/C=C/C=O)cc1`, the Ki – broadly, the dissociation constant of the complex between target and ligand, obtained from inhibition or displacement – came to 290 µM in test [4], 190 µM in test [5] and 18 µM in test [6].

For the origin of these results see ChEMBL document CHEMBL1137841, “Peptidyl aldehydes as slow-binding inhibitors of dual-specificity phosphatases” (Bioorg Med Chem Lett, 2004).
